Consider four compounds from US9708318B2, “Bicyclic heterocycles as FGFR4 inhibitors” (Incyte Corporation, priority 2015, dated 2017).

Read-outs that look alike come from different tables or passages of the source. Where only a bound is given, the exact number is not on record here.

Test [1] has as its target FGFR2 (Homo sapiens (Human), UniProt P21802). In words: FGFR Enzymatic Assay (FRET peptide phosphorylation), FGFR2. Type of test: biochemical. The procedure:
(§1) The inhibitor potency of the exemplified compounds was measured in an enzyme assay that measures peptide phosphorylation using FRET measurements to detect product formation. Inhibitors were serially diluted in DMSO and a volume of 0.5 μL was transferred to the wells of a 384-well plate.
(§2) The enzymes were purchased from Millipore or Invitrogen.
(§3) GraphPad prism3 was used to analyze the data.

In test [2] the target is FGFR3 enzyme (Homo sapiens (Human), UniProt P22607). In words: FGFR Enzymatic Assay (FRET peptide phosphorylation), FGFR3. Type of test: biochemical. The settings on record: for FGFR1/FGFR3 IC50 ratio: FGFR3 selectivity; for IC50: read-out: FGFR3 IC50. The procedure:
as §1, §3

Test [3] addresses FGFR4 (Homo sapiens (Human), UniProt P22455). In words: FGFR Enzymatic Assay (FRET peptide phosphorylation), FGFR4. The class given is biochemical. The settings on record: for FGFR1/FGFR4 IC50 ratio / FGFR2/FGFR4 IC50 ratio / FGFR3/FGFR4 IC50 ratio: FGFR4 selectivity. The procedure:
as §1, §2, §3

In test [4] the target is FGFR1 (Homo sapiens (Human), UniProt P11362). Kind of test: FGFR Enzymatic Assay (FRET peptide phosphorylation), FGFR1.
The mark [5] stands for this setting: pre-incubated for 5 to 10 minutes.
[6] abbreviates: read-out: FGFR1 IC50, pre-incubated for 5 to 10 minutes.
Where [7] appears, read: read-out: FGFR1 IC50, pre-incubated for 4 hours.

FGFR2, sequence (P21802 22-821): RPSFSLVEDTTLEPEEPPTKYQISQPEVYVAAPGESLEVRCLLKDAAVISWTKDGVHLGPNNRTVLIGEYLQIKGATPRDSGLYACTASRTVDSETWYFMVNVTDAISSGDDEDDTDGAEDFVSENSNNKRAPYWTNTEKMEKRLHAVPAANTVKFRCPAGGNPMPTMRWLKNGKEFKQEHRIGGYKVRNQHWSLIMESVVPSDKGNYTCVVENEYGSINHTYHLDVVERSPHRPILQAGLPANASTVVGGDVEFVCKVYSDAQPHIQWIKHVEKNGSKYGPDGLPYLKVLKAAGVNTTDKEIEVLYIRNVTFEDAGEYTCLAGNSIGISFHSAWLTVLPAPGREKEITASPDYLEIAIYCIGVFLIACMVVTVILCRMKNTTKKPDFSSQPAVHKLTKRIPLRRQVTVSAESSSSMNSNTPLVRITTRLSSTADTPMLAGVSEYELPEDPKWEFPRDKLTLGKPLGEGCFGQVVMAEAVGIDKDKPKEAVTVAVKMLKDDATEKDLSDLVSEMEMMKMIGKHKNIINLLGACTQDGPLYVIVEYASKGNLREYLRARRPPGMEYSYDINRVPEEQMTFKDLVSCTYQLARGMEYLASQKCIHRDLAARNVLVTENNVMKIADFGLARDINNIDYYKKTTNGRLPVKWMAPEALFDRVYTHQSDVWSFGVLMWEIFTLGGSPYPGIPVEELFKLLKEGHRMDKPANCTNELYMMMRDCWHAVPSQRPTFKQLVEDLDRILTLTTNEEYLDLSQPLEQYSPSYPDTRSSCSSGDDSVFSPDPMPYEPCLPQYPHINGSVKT
FGFR3 enzyme, sequence (P22607 23-806): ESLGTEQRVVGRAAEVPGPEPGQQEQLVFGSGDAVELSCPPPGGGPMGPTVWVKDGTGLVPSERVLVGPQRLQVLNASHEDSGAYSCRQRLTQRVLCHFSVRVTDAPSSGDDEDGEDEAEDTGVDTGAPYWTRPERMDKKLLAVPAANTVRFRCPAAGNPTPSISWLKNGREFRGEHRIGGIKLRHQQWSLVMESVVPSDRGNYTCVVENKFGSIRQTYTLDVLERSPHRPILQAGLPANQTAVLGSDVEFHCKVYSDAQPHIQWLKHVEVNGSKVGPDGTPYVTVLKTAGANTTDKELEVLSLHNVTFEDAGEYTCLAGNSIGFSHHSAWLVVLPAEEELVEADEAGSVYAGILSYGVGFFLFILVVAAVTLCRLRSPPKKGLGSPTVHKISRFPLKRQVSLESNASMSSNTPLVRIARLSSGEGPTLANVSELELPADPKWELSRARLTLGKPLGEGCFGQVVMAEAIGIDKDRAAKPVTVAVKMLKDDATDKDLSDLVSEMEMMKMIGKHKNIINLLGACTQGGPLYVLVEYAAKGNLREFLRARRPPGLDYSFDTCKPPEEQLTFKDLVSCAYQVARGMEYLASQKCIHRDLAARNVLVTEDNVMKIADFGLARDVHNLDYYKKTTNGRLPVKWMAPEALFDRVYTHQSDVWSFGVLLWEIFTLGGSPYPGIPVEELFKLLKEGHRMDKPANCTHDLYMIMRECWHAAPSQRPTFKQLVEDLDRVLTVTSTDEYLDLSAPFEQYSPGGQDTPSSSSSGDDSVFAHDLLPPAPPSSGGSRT
FGFR4, sequence (P22455 22-802): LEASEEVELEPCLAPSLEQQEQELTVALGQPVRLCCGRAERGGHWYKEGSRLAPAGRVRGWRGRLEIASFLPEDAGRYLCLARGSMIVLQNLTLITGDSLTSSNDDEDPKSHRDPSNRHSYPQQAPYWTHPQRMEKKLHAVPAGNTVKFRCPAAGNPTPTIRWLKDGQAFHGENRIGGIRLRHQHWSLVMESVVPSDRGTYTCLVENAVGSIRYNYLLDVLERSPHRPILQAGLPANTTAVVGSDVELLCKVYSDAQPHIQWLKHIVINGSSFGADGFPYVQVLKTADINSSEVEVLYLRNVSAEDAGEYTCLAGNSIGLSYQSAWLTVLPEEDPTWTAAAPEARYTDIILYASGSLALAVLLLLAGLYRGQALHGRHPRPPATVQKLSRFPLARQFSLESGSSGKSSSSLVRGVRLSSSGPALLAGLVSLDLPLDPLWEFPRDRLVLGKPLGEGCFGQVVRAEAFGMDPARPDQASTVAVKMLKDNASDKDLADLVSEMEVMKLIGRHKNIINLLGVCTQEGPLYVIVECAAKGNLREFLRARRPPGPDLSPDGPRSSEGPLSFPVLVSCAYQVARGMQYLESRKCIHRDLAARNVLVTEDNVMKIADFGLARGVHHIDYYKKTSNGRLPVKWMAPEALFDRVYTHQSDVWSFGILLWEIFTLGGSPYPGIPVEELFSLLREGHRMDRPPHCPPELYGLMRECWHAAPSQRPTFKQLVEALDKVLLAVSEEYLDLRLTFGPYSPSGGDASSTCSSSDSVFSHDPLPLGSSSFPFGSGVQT
FGFR1, sequence (P11362 22-822): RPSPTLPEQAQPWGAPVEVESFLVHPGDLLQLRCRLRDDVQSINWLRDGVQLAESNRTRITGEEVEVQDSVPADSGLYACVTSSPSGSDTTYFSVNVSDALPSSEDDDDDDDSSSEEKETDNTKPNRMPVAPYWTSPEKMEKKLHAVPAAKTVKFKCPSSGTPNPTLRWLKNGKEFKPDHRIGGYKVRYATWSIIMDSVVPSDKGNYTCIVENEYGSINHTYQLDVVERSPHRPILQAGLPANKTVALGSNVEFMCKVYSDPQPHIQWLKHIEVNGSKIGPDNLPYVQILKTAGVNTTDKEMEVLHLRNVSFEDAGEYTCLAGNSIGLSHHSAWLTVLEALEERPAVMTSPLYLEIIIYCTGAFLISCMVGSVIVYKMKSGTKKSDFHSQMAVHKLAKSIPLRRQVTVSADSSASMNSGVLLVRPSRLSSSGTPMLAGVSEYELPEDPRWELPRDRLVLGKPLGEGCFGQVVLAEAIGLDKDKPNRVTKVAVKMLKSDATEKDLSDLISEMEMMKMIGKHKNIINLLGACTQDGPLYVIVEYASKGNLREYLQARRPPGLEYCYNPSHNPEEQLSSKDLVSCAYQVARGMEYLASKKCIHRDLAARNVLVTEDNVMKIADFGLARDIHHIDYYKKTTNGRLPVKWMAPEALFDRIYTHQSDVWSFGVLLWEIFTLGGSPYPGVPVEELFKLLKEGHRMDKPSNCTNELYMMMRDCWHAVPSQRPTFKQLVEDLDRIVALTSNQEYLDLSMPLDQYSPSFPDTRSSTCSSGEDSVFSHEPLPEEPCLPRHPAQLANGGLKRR

Usually IC50 stands for the concentration that inhibits the measured activity by half. Take `COc1cc(OC)c(F)c(N2Cc3cnc(-c4cncc(F)c4)cc3C3(CC3)C2=O)c1F` [Example 5, 2′-(2,6-difluoro-3,5-dimethoxyphenyl)-6′-(5-fluoropyridin-3-yl)-1′H-spiro[cyclopropane-1,4′-[2,7]naphthyridin]-3′(2′H)-one]: the IC50 was 10 to 30 nM in test [1] (setting [5]); 10 to 30 nM in test [1] (pre-incubated for 4 hours); 10 to 30 nM in test [2] (setting [5]); 10 to 30 nM in test [2] (pre-incubated for 4 hours); below 10 nM in test [3] (setting [5]); below 10 nM in test [3] (pre-incubated for 4 hours). For the same compound, the IC50 was 30 to 200 nM in test [4] (FGFR1 IC50 (nM), pre-incubated for 5 to 10 minutes) and 30 to 200 nM in test [4] (FGFR1 IC50 (nM), pre-incubated for 4 hours). In addition, the “FGFR1/FGFR3 IC50 ratio” value in test [2] (pre-incubated for 4 hours) is recorded as above 3. In addition, the “FGFR1/FGFR4 IC50 ratio” value in test [3] (setting [5]) and in test [3] (pre-incubated for 4 hours) was above 10 each time. The “FGFR2/FGFR4 IC50 ratio” value in test [3] (setting [5]) and in test [3] (pre-incubated for 4 hours) was above 5 throughout. The “FGFR3/FGFR4 IC50 ratio” value in test [3] (setting [5]) is on record as above 4; in test [3] (pre-incubated for 4 hours) it was above 1.

On to `COc1cc(OC)c(F)c(N2Cc3cnc(-c4cncc(N5CCOCC5)c4)cc3C3(CC3)C2=O)c1F` [Example 6, 2′-(2,6-difluoro-3,5-dimethoxyphenyl)-6′-(5-morpholinopyridin-3-yl)-1′H-spiro[cyclopropane-1,4′-[2,7]naphthyridin]-3′(2′H)-one], for which the IC50 in test [1] (setting [5]) is above 200 nM; in test [1] (pre-incubated for 4 hours) it was above 200 nM; in test [2] (setting [5]), 30 to 200 nM; in test [2] (pre-incubated for 4 hours) it was 30 to 200 nM; in test [3] (setting [5]), below 10 nM; in test [3] (pre-incubated for 4 hours), below 10 nM. For the same compound, the IC50 in test [4] (setting [6]) and in test [4] (setting [7]) was above 200 nM each time. Besides, the “FGFR1/FGFR3 IC50 ratio” value in test [2] (pre-incubated for 4 hours) is above 3. In addition, the “FGFR1/FGFR4 IC50 ratio” value in test [3] (setting [5]) and in test [3] (pre-incubated for 4 hours) was above 100 in each case. The “FGFR2/FGFR4 IC50 ratio” value in test [3] (setting [5]) and in test [3] (pre-incubated for 4 hours) was above 100 in each case. Also, the entries for the “FGFR3/FGFR4 IC50 ratio” value in test [3] (setting [5]) and in test [3] (pre-incubated for 4 hours) were above 50 and above 25, respectively.

For `COc1cc(OC)c(F)c(N2Cc3cnc(-c4cc(N)cnc4C)cc3C3(CC3)C2=O)c1F` [Example 7, 6′-(5-amino-2-methylpyridin-3-yl)-2′-(2,6-difluoro-3,5-dimethoxyphenyl)-1′H-spiro[cyclopropane-1,4′-[2,7]naphthyridin]-3′(2′H)-one], the IC50 in test [1] (setting [5]) is above 200 nM; in test [1] (pre-incubated for 4 hours), above 200 nM; in test [2] (setting [5]), above 200 nM; in test [2] (pre-incubated for 4 hours) it was above 200 nM; in test [3] (setting [5]), 30 to 200 nM; in test [3] (pre-incubated for 4 hours), 30 to 200 nM. Also, the IC50 in test [4] (setting [6]) and in test [4] (setting [7]) was above 200 nM throughout. In test [2] (pre-incubated for 4 hours), the “FGFR1/FGFR3 IC50 ratio” value was above 1. The “FGFR1/FGFR4 IC50 ratio” value in test [3] (setting [5]) was above 25; in test [3] (pre-incubated for 4 hours), above 50. The entries for the “FGFR2/FGFR4 IC50 ratio” value in test [3] (setting [5]) and in test [3] (pre-incubated for 4 hours) were above 10 and above 25, respectively. Moreover, the “FGFR3/FGFR4 IC50 ratio” value was above 10 in test [3] (setting [5]) and above 25 in test [3] (pre-incubated for 4 hours).

Consider `COc1cc(OC)c(F)c(N2Cc3cnc(-c4cncc(C#N)c4)cc3C3(CC3)C2=O)c1F` [Example 8, 5-(2′-(2,6-difluoro-3,5-dimethoxyphenyl)-3′-oxo-2′,3′-dihydro-1′H-spiro[cyclopropane-1,4′-[2,7]naphthyridine]-6′-yl)nicotinonitrile], for which the IC50 was above 200 nM in test [1] (setting [5]); above 200 nM in test [1] (pre-incubated for 4 hours); 30 to 200 nM in test [2] (setting [5]); 30 to 200 nM in test [2] (pre-incubated for 4 hours); 10 to 30 nM in test [3] (setting [5]); 10 to 30 nM in test [3] (pre-incubated for 4 hours). Also, the IC50 in test [4] (setting [6]) and in test [4] (setting [7]) was above 200 nM each time. In test [2] (pre-incubated for 4 hours), the “FGFR1/FGFR3 IC50 ratio” value is on record as above 5. For the same compound, the “FGFR1/FGFR4 IC50 ratio” value in test [3] (setting [5]) and in test [3] (pre-incubated for 4 hours) was above 50 in each case. For the same compound, the “FGFR2/FGFR4 IC50 ratio” value in test [3] (setting [5]) and in test [3] (pre-incubated for 4 hours) was above 10 each time. The “FGFR3/FGFR4 IC50 ratio” value in test [3] (setting [5]) and in test [3] (pre-incubated for 4 hours) was above 10 in each case.
